Results taken from patent publication US5792742A, “Fibrin-binding peptide fragments of fibronectin” (New York University, priority 1994, dated 1998).
“Also recorded” adds a separate entry of the source. Read-outs that look alike come from different tables or passages of the source. Blank lines part the entries; values can stand above or below the substance they belong to.

Experiments:
fibrin [1] = assay: Fibrin-SEPHAROSE affinity chromatography (binding and elution); parameters: species or system bovine
Description: Bovine fibrinogen was cross-linked to CNBr-activated SEPHAROSE™ (5 mg/ml beads) according to the manufacturer's instructions. Coupled fibrinogen was subsequently converted to fibrin by incubation with human thrombin to a final concentration of 5 NIH units/ml and 100 K.I. (kallikrein inhibitory) units/ml of aprotinin (in 0.05M Tris-HCI buffer, pH 7.6, containing 0.1M NaCl and 0.01M EDTA) for three hours, at room temperature (Gold, et al. (1983) Biochemistry 22, 4113-4119).
1.0M NaCl in 0.05M tris buffer, pH 8.0.
The fibrin-binding activity of the proteolytically derived 25.9 kDa fragment of Fn was determined by its ability to bind to a fibrin affinity matrix. […] FBB was used to equilibrate and wash the column. Following warming of the column to 22° C., the column was washed with FBB until absorbance at 280 nm (A280) was less than 0.01, and bound protein eluted with 0.05M Tris-HCl, 0.5M NaCl, 6M urea buffer, pH 7.6.
The module (500 μg/1.0 ml) was incubated for 4 hours (while rotating) at 4° C. in the presence of 1.0 ml fibrin-SEPHAROSE™ (5 mg fibrin/ml SEPHAROSE™ beads) equilibrated in […] Tris-HCl, 0.1M NaCl buffer, pH 7.6.
The 11 KDa peptide (50 μg/0.206 ml) was radiolabeled using the IODO-BEAD method (Pierce Chemical). The peptide was added to one IODO-BEAD in the presence of 100 μCi ^125 I (17.4 Ci/mg, New England Nuclear) and incubated on ice for 10 minutes. The bead was removed and the free ^125 I removed by chromatography through a PD10 column containing SEPHADEX™ G-25 (Pharmacia). […] The radioiodinated 11 kDa fibrin-binding peptide (500 μg/1.5 ml) was combined with 1 ml of fibrin-SEPHAROSE™ (5 mg fibrin/ml beads) equilibrated with 50 mM Tris-HCl, 0.1M NaCl buffer, pH 7.6, and rotated for 4 hours, at 4° C. The mixture was poured onto a disposable column (0.6 cm×8.0) and the unbound protein washed through. The column was equilibrated to room temperature and washed with the equilibration buffer.

fibrin [2] = assay: Binding of 35S-methionine labeled recombinant proteins (COS cell supernatants) to fibrin-SEPHAROSE, autoradiogram quantitation
Text: Recombinant proteins from both the N-terminal and C-terminal fibrin binding sites of the Fn molecule were expressed by transfection into ^35 S-labeled (methionine) COS cells, as described by Schwarzbauer, J. Cell Biol., 113:1463-1473 and Sottile et al, J. Biol. Chem., 266:12840-12843, (1991) and their fibrin-binding activity determined by affinity chromatography experiment. The ^35 S-methionive labeled protein from the N-terminal site was a 10.5 kDa protein that comprised the ^4 F1.^5 F1 modules (^4 F1.^5 F1). The ^35 S-methionive labeled 25 kDa recombinant protein from the C-terminal fibrin binding site of Fn expressed by the COS cells commenced in the ^10 F1 and extended to the end of the molecule (^10 F1-end). For the affinity chromatography experiments each of the cell culture supernatants that contained the separately expressed proteins (1.5 ml) were combined with 0.4 ml of a fibrin-SEPHAROSE affinity matrix and incubated overnight at 4 C. with end over rotation. Upon removal of the supernatant by centrifugation, the matrices were washed extensively with FBB (10 times with a 0.5 ml wash volume each ); after each wash the matrices were centrifuged and the supernatants removed. […] Aliquots (50 ul) of each fraction was counted in a LS 6000 Scintilation Counter, the corresponding fractions pooled, and analyzed by SDS-PAGE followed by autoradiography. The autoradiograms were exposed for two weeks and scanned with a pdi Desktop Scanner. […] As a control, to indicate the relative level of expression of the recombinant proteins and to confirm their position in the autoradiograms, an aliquot of each COS cell culture supernatant was immunoprecipited with an anti-fibronectin antibody and compared with the ^35 S-labeled proteins retained by the fibrin affinity chromatography matrices by SDS-PAGE and autoradiography. […] The Protein A-Sepharose beads were separated by centrifugation, washed two times with Tris-buffered saline, resuspended in Laemmli sample buffer and applied to SDS-PAGE.
FIG. 30 illustrates the binding of ^35 S-methionine labeled recombinant modules from both the N- (^4 F1.^5 F1) and C-terminal (^10 F1-end) fibrin binding sites of Fn to fibrin-SEPHAROSE affinity matrices. […] The results of the autoradiograms are represented by the graphs which indicate the image analysis of the bound recombinant proteins.

fibrin [3] = assay: Direct binding ELISA on fibrin-coated microtiter plates; conditions: for binding to fibrin-coated wells: ELISA, room temperature, 1 hr
Description: The preparation of fibrin coated microtiter plates was adapted from a method described by Christman et al., Biochim. Biophys. Acta. […] Microtiter (Immulon) plates were coated with fibrinogen at a concentration of 50-1000 ng/well/0.1 ml of Tris buffered saline (TBS). The plates were dried for 24 hours at 37° C. and 0.1 ml of thrombin (20 NIH units/100 ml) containing TRASYLOL™ (aprotinin) (400 K.I units/100 ml) in TBS was added to each well and the plates incubated for 2 hours at 37° C. Each well is washed one time with PBS and the plates are blocked for 1.5 hours with 1% BSA in TBS to prevent non-specific binding. A constant concentration of fibronectin and the 11 kDa fibrin-binding polypeptide (500 ng/0.1 ml) in 50 mM Tris-HCl, 0.1M NaCl, pH 7.6 (FBB) were incubated separately with fibrin coated microtiter wells (50-1000 ng) for 1 hr at room temperature (23° C.).
The wells were washed three times with FBB containing 0.05% Tween 20 (FBBT) and incubated for 1 hour with 0.05 ml of the a polyclonal anti-fibronectinantiserum (Calbiochem) or the purified IgG fraction of anti-11 kDa rabbit antisera, respectively, at a concentration of 1 μg/ml in FBBT containing 0.1% BSA (FBBT/BSA). Following three washes with FBBT, the wells were incubated with 0.05 ml of alkaline phosphatase labeled goat anti-rabbit IgG (TAGO) at a concentration of 2 μg/ml in FBBT/BSA, for 1 hour. The reaction was developed with 0.05 ml of […] p-nitrophenyl phosphate (Sigma phosphatase substrate tablets) in 10% diethanolamine, pH 9.8 containing 1 mM MgCl2.
2. […] Binding of ^4 F1.^5 F1 to fibrin coated microtiter plates was examined by ELISA as described above. Microtiter wells were coated with fibrin (50-1000 ng) and blocked, as described earlier, and incubated with the module pair ^4 F1.^5 F1 (500 ng/0.1 ml or 1000 ng/0.1 ml in FBB) for 1 hour, at room temperature.
Fibrin-binding activity was also assessed by an ELISA. Fn was reacted with fibrin-coated microtiter plates and bound Fn was determined by incubation with a polyclonal rabbit anti-Fn antiserum followed by alkaline phosphatase-labeled anti-rabbit Ig.

fibrin [4] = assay: ELISA: competitive inhibition of fibronectin binding to fibrin by type 1 recombinant modules; conditions: for maximum inhibition of Fn binding to fibrin: saturating concentration
Description: Fibrin-binding activity was also assessed by an ELISA. Fn was reacted with fibrin-coated microtiter plates and bound Fn was determined by incubation with a polyclonal rabbit anti-Fn antiserum followed by alkaline phosphatase-labeled anti-rabbit Ig. […] Thus, on a mole-per-mole basis, assuming complete attachment of all the fibrinogen applied to the polystyrene plate, total proteolytic conversion to fibrin, and accessibility of the binding sites, 0.8 moles of Fn per mole of fibrin were required to achieve maximum binding (assuming a molecular weight of 340 kDa for the fibrin hexamer and 440 kDa for the Fn dimer).
The recombinant Fn modules were used to inhibit the binding of Fn to the fibrin-coated microtiter plates. […] At this saturating concentration, the binding of Fn to fibrin was inhibited by 70%.

fibrin [5] = conditions: for IC50: read-out: IC50, 50% inhibition of binding of biotinylated Fn to fibrin, 200 ng fibrin, 1 hour 22° C.
Description: Since the anti-Fn detection system described for the ELISA above could not be used in Fn competition assays employing the intact Fn molecule or the 25.8 kDa proteolytic fragment, purified Fn was biotinylated using water soluble NHS-LC-Biotin (Pierce Chemm. Co.; according to the manufacturer's instructions) and binding to fibrin detected by alkaline phosphatase conjugated streptavidin (diluted 1/500 in FBBT/BSA) for 1 hour at 22° C., followed by the addition of p-nitrophenyl phosphate, as described above. To ensure that the biotinylation of the Fn had not affected its ability to bind to fibrin, fibrin-binding activity was tested by incubating increasing concentrations of biotinylated Fn (10-300 ng/0.1 ml FBB) with the fibrin-coated wells (200 ng) and detected (see FIG. 28A) using alkaline phosphatase-conjugated streptavidin and the reaction developed as described for Direct Elisa.
To compare the relative fibrin-binding affinities of the ^4 F1.^5 F1 recombinant module pair and the 25.9 kDa proteolytic fragment (^1 F1-^5 F1) with that of the native Fn molecule, these purified proteins were competed with biotinylated plasma Fn for binding to fibrin coated wells and the extent of inhibition of binding assessed by incubation with alkaline phosphatase-conjugated streptavidin. […] Biotinylated Fn (100 ng/0.1 ml FBB: 2.3 nM) was combined with increasing concentrations (0-10 μM) of either unlabeled Fn, the 25.9 kDa proteolytic fragment, or the separate ^4 F1.^5 F1, and ^10 F1 recombinant modules and incubated with the fibrin-coated microtiter wells for 1 hour at 22° C. […] Bound biotinylated Fn was quantitated as described above.

fibrin [6] = assay: Reversibility (displacement) of 125I-11 kDa FBP binding to fibrin; conditions: negative control
Description: Detachable microtiter wells previously coated with 15 ng of fibrin were incubated with 100 ng/0.1 ml FBB (90 nM) of ^125 I-11 kDa for 1 hour at 22° C. The unbound radiolabeled protein was removed by extensive washing with FBB containing 0.1% Tween 20. […] The iodinated 11 kDa that remained bound to the removable wells was determined by quantitating the radioactivity attached to the individual wells in a gamma counter. Results were expressed as percentage of control wells incubated with buffer alone.

[7] = 35S-methionine labeled, optical density of autoradiogram

Substance: ^4 F1.^5 F1: recombinant 93 amino acid module pair, fourth and fifth type 1 modules of human fibronectin, residues 152-244 of SEQ ID NO:1
- elution of protein remaining bound after warming to 22° C. with 1.0M urea and finally 2.0M urea (fibrin [1]): eluted all the remaining bound
- elution of protein remaining bound after warming to 22° C. with 1.0M NaCl (fibrin [1]; 18% of total protein applied remained bound): could not be eluted
- % of protein applied eluted on warming the column to 22° C. (room temperature) (fibrin [1]; FBB buffer): 9%
- % of protein applied eluted with 0.5M NaCl, 6.0M urea buffer (fibrin [1]; after warming to 22° C.): 18%
- % of protein applied retained by fibrin-SEPHAROSE (fibrin [1]; binding at 4° C., 500 μg applied): 27%
- % of protein applied retained by fibrin-Sepharose with increasing amounts applied (fibrin [1]; increasing amounts applied to a fixed volume of fibrin-Sepharose): 25%
- relative affinity for fibrin (fibrin [2]): lower affinity
- % of bound protein released by warming to 22° C. (fibrin [2]; [7]): 88%
- binding to fibrin-coated wells (fibrin [3]): bound to fibrin
- concentration at which maximum inhibition was achieved (fibrin [4]; Fn 2.3 nM): 10 µM
- molar excess at maximum inhibition (fibrin [4]; Fn 2.3 nM): 5,000
- molar excess over Fn at 50% inhibition (fibrin [4]; Fn 2.3 nM): 325
- IC50 (fibrin [4]; Fn 100 ng (2.3 nM), fibrin 200 ng, read-out: concentration decreasing Fn binding to fibrin to 50%): 750 nM
- maximum inhibition of Fn binding to fibrin (fibrin [4]): 70%
- amount relative to antibody (w/w) used to obtain maximal inhibition (fibrin [5]): 16 times
- blocked binding of fibronectin to fibrin (summary, FIG. 29) (fibrin [5]): 36%
- maximal inhibition of biotinylated Fn binding to fibrin (fibrin [5]; 10 μM of protein (5,000 molar excess)): 67%
- maximum inhibition of Fn binding to fibrin (FIG. 29) (fibrin [5]; 0.1-25 μg inhibitor, biotinylated Fn 100 ng, fibrin 200 ng): 67%
- IC50 (fibrin [5]; biotinylated Fn 2.3 nM): 700 nM

Substance: ^7 F1: recombinant seventh type 1 module from human fibronectin, residues 434-484 of SEQ ID NO:1 [reference compound]
- binding to fibrin-Sepharose (fibrin [1]): did not bind
- inhibition of the binding of Fn to fibrin (non-binding modules) (fibrin [4]; up to 5,000-50,000 molar excess compared to Fn): < 20%

Substance: ^10 F1-end: 25 kDa recombinant protein from COS cells commencing in the tenth type 1 module and extending to the end of fibronectin
- relative affinity for fibrin (fibrin [2]): higher relative affinity
- % of bound protein released by warming to 22° C. (fibrin [2]; [7]): 35%
- % of bound protein requiring 6M urea in 0.5M NaCl for elution (fibrin [2]; [7]): 65%

Substance: egg lysozyme: unrelated protein employed as negative control
- displacement of bound 125I-11 kDa FBP (fibrin [6]): unable to disrupt; also recorded: unable to displace

More lines, main results first:

- binding to fibrin-Sepharose (fibrin [1]): did not bind
- inhibition of biotinylated Fn binding (non-fibrin-binding modules) (fibrin [5]; 0-10 μM competitor, biotinylated Fn 2.3 nM): 10%
Substance: ^10 F1: recombinant 46 amino acid tenth type 1 module from human fibronectin, residues 2141-2186 of SEQ ID NO:1 [reference compound]
- fibrin binding as single module (fibrin [5]): did not, as a single module, exhibit fibrin-binding

- amount giving maximum binding per 550 ng of fibrin (fibrin [3]): approximately 500 ng
- concentration at saturation of binding to fibrin (fibrin [3]; 200 ng Fn to 200 ng of fibrin (5.88 nM)): ~4.54 nM
- moles per mole of fibrin required to achieve maximum binding (fibrin [3]; assuming 340 kDa fibrin hexamer, 440 kDa Fn dimer): 0.8
- concentration required for complete inhibition of biotinylated Fn binding (fibrin [5]; biotinylated Fn 2.3 nM): 2.2 µM
- IC50 (fibrin [5]; biotinylated Fn 2.3 nM): 20 nM
Substance: fibronectin: purified intact human plasma fibronectin, 440 kDa dimer [reference compound]
- binding to fibrin-coated wells (fibrin [3]): bound to the fibrin-coated wells in a concentration dependent manner
- molar excess required for complete inhibition (fibrin [5]; biotinylated Fn 2.3 nM): 1000

- maximum inhibition of Fn binding to fibrin (fibrin [4]): 55%
Substance: t-PA type 1 module: single type 1 module from tissue plasminogen activator (CRDEKTQMIYQQHQSWLRPVLRSNRVEYCWCNSGRAQCH) [reference compound]
